# Reference: US12428406B2 (PMV Pharmaceuticals, Inc., priority 2019, dated 2025)
# Biological target: T1, p53 Y220C (Homo sapiens, UniProt P04637, Y220C)
# T1 construct: The recombinant protein was a truncation mutant containing only amino acids 94-312 of p53; made in house; host or cells: E. coli
# Assay: In vitro DNA binding activity assay (HTRF / TR-FRET): stabilization of p53 Y220C and increase of its DNA binding activity
# Assay type: biochemical
# Conditions: recombinant His-tagged p53 Y220C DNA binding domain (aa 94-312), biotin-labeled consensus DNA, incubated at 27° C. or 29° C. for 60 min
# Procedure, shortened: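 Compound effect on DNA binding of recombinant His-p53 Y220C (E. coli) to biotin-labeled consensus DNA, expressed as SC150, the concentration giving 50% increase versus untreated. Serial 3-fold DMSO dilutions of 4.5 mM stocks; room-temperature steps of 15 then 20 min.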
# T1 sequence (P04637 94-312, change not shown): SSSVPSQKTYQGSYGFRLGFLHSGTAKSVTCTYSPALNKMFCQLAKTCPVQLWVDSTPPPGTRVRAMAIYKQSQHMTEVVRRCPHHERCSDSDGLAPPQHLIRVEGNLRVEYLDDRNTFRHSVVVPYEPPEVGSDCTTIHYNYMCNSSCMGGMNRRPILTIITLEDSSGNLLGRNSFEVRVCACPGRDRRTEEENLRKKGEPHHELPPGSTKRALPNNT
row,SMILES,SC150 (concentration of the compound required to increase the DNA binding activity by 50%)
1,"COc1cc(S(N)(=O)=O)ccc1NCC#Cc1cc2c(NC3CCN(C[C@@H]4COC(=O)O4)CC3)cccc2n1CC(F)(F)F [Compound 562A, 3-methoxy-4-[(3-{4-[(1-{[(4R)-2-oxo-1,3-dioxolan-4-yl]methyl}piperidin-4-yl)amino]-1-(2,2,2-trifluoroethyl)-1H-indol-2-yl}prop-2-yn-1-yl)amino]benzene-1-sulfonamide]",+ (+ = 0 μM ≤ SC150 < 0.05 μM)
2,"CS(=O)(=O)c1ccc(NCC#Cc2cc3c(N[C@H]4CC[C@@H](N5CCOCC5)CC4)cccc3n2CC(F)(F)F)c(OCC#N)c1 [Compound 186A, 2-(5-methanesulfonyl-2-{[3-(4-{[(1S,4S)-4-(morpholin-4-yl)cyclohexyl]amino}-1-(2,2,2-trifluoroethyl)-1H-indol-2-yl)prop-2-yn-1-yl]amino}phenoxy)acetonitrile]",+ (+ = 0 μM ≤ SC150 < 0.05 μM)
3,"COc1cc(S(N)(=O)=O)ccc1NCC#Cc1cc2c(N[C@H]3C[C@@H](C)O[C@@H](C)C3)cccc2n1CC(F)(F)F [Compound 1032A, 3-methoxy-4-{[3-(4-{[(2R,4R,6S)-2,6-dimethyloxan-4-yl]amino}-1-(2,2,2-trifluoroethyl)-1H-indol-2-yl)prop-2-yn-1-yl]amino}benzene-1-sulfonamide]",++ (++ = 0.05 μM ≤ SC150 < 0.1 μM)
4,"CNC(=O)c1ccc(NCC#Cc2cc3c(N[C@H]4CC[C@H](N)CC4)cccc3n2CC(F)(F)F)c(OC)c1 [Compound 24A, 3-methoxy-N-methyl-4-{[3-(4-{[(1R,4R)-4-aminocyclo-hexyl]amino}-1-(2,2,2-trifluoroethyl)-1H-indol-2-yl)prop-2-yn-1-yl]amino}benzamide]",+ (+ = 0 μM ≤ SC150 < 0.05 μM)
5,"COc1cc(S(C)(=O)=O)ccc1NCC#Cc1cc2c(N[C@H]3CCO[C@@H](C)C3)cccc2n1CC(F)(F)F [Compound 1017A, 2-{3-[(4-methanesulfonyl-2-methoxyphenyl)amino]prop-1-yn-1-yl}-N-[(2S,4S)-2-methyloxan-4-yl]-1-(2,2,2-trifluoroethyl)-1H-indol-4-amine]",+ (+ = 0 μM ≤ SC150 < 0.05 μM)
6,"COc1cc(S(C)(=O)=O)ccc1NCC#Cc1cc2c(N[C@H]3CC[C@H](N4CCC5(CCOC5)CC4)CC3)cccc2n1CC(F)(F)F [Compound 410A, 2-{3-[(4-methane-sulfonyl-2-methoxy-phenyl)amino]prop-1-yn-1-yl}-N-[(1R,4R)-4-{2-oxa-8-azaspiro[4.5]decan-8-yl}cyclohexyl]-1-(2,2,2-trifluoroethyl)-1H-indol-4-amine]",+ (+ = 0 μM ≤ SC150 < 0.05 μM)
7,"CCN1CCC(Nc2cccc3c2cc(C#CCNc2ccc(C(=O)NC)cc2OC)n3CC(F)(F)F)CC1 [Compound 535A, 4-[(3-{4-[(1-ethylpiperidin-4-yl)amino]-1-(2,2,2-trifluoroethyl)-1H-indol-2-yl}prop-2-yn-1-yl)amino]-3-methoxy-N-methylbenzamide]",+ (+ = 0 μM ≤ SC150 < 0.05 μM)
8,"COc1cc(C(=O)O)ccc1NCC#Cc1cc2c(N[C@H]3CCN(C)C[C@H]3F)cccc2n1CC(F)(F)F (racemic) [Compound 779A, rac-4-{[3-(4-{[(3R,4S)-3-fluoro-1-methylpiperidin-4-yl]amino}-1-(2,2,2-trifluoroethyl)-1H-indol-2-yl)prop-2-yn-1-yl]amino}-3-methoxybenzoic acid]",+ (+ = 0 μM ≤ SC150 < 0.05 μM)
9,"CNC(=O)c1ccc(NCC#Cc2cc3c(N[C@H]4CC[C@H](N(C)C)CC4)cccc3n2CC(F)(F)F)c(OCCC#N)c1 [Compound 114A, 3-(2-cyanoethoxy)-N-methyl-4-{[3-(4-{[(1R,4R)-4-(dimethyl-amino)cyclohexyl]amino}-1-(2,2,2-trifluoro-ethyl)-1H-indol-2-yl)prop-2-yn-1-yl]amino}benzamide]",+ (+ = 0 μM ≤ SC150 < 0.05 μM)
